US10357537B2, “Cyclotides as immunosuppressive agents” (priority 2011, dated 2019)
Marks after values point to notes of the source that are not given here.

Columns and labels:
[1] = Relative insecticidal activity (other assays, Table 2); conditions: in vivo
[2] = tested on: degranulation marker LAMP-1 (CD107a) on activated PBMC; experiment: CD107a degranulation analysis; format: cell-based, human; conditions: after 36 h; T20K 4 μM, CsA 5 μg/mL
Experimental: FIG. 16. Degranulation capacity of cyclotide-treated activated human PBMC. […] After 36 hour of cultivation the cells were restimulated with PMA/Ionomycin for 2.5 hours in the presence of a CD107a mAbs and GolgiStop reagent to determine the amount of degranulation by flow cytometry. Representative data are shown in dot plots (A) and in (B) data are presented as mean and standard deviation (SD) of three independent experiments.
Activated cells were grown for 36 h and then treated for re-stimulation with PMA (50 ng/ml) und ionomycin (500 ng/ml) and stained with CD107a PE. After 1 h the reaction was stopped with 2 μl Golgi-Stop (1:10) and incubated for 2.5 h at 37° C. The cells were transferred into a 96-well plate, centrifuged (5 min, 1000 RPM, 20° C.) and washed with 100 μl FACS-buffer. Afterwards, PBMCs were stained with CD8 PE-Cy5 for 15 min at 4° C. and following to wash cycles with FACS-buffer the cells were resuspended in 100 μl, transferred into FACS vials with a total volume of 250 μl and the degranulation was measured by FACS analysis.
After determining the influence of cyclotide treatment on the effector function of PBMCs on the basis of measuring IFN-gamma and TNF-alpha cytokine levels, it is of interest to determine an effect of cyclotides on the degranulation activity. Activation of cytotoxic CD8^+-lymphocytes lead to a release of cytolytic granules, which contain/express lysosomal-associated membrane protein 1 (CD107; LAMP-1). During degranulation, the granule vesicle membranes fuse with the membranes of activated CD8^+-lymphocytes and therefore LAMP-1 can be used as a marker protein for the cytotoxic activity of T-lymphocytes, which can be measured with FACS. After 36 h, 42%±21.4 of the CsA- and 49%±16.8 of the T20K-treated cells contain the degranulation marker LAMP-1 as compared to the control (FIG. 16). This can be interpreted in the way that CsA- and T20K-treated cells have reduced cytotoxicity.

nematodes = experiment: Relative nematocidal activity (other assays, Table 2); format: in vivo; conditions: some cells print two values separated by a slash
[3] = tested on: activated human primary PBMC; experiment: Anti-proliferative CFSE cell division assay on anti-CD3/CD28-activated PBMC; conditions: PBMCs, anti-CD3/28 mAbs, 72 h, cyclotides 1.8-14 μM; n.a. = not active
Experimental: Human peripheral blood mononuclear cells (PBMC) were isolated from the blood of healthy adult donors obtained from the Blood Transfusion Centre (University Medical Center, Freiburg, Germany). Venous blood was centrifuged on a LymphoPrep™ gradient (density: 1.077 g/cm^3, 20 min, 500×g, 20° C.; Progen, Heidelberg, Germany). Afterwards cells were washed twice with medium and cell viability and concentration was determined using the trypan blue exclusion test. PBMC were cultured in RPMI 1640 medium supplemented with 10% heat-inactivated fetal calf serum (PAA, Coelbe, Germany), 2 mM L-glutamine, 100 U/mL penicillin and […] (all from Invitrogen, Karlsruhe, Germany). The cells were cultured at 37° C. in a humidified incubator with a 5% CO2/95% air atmosphere. All experiments conducted on human material were approved by the Ethics committee of the University of Freiburg.
(§1) After cultivation, the cells were assessed in bioassays as described in the text.
For cell proliferation and cell division tracking analysis PBMC were harvested and washed twice in cold PBS and resuspended in PBS at a concentration of 5×10^6 cells/mL. Cells were incubated for 10 min at 37° C. with carboxyfluorescein diacetate succinimidyl ester (CFSE; 5 μM: Sigma-Aldrich, Taufkirchen, Germany). The staining reaction was stopped by washing twice with complete medium. Afterwards, the cell division progress was analysed using flow cytometric analysis.
The anti-proliferative effect of cyclotide mutants/variants was tested according to Example 5. […] Afterwards the cell proliferation was assessed by analysing cell division using flow cytometric-based histogram analysis.

PHA-L-stimulated PBMC = experiment: Proliferation of PHA-L-stimulated CFSE-labelled PBMC with or without exogenous IL-2; format: cell-based, human; conditions: cyclotides 4 μM, CsA 5 μg/mL, 3 day culture; for proliferation with exogenous IL-2: IL-2 10 U/mL
Experimental: FIG. 13. Proliferation capacity of cyclotide-treated PBMC in the presence of exogenous IL-2. […] The cells were cultured without exogenous IL-2 (10 U/mL) (A and B) or in the presence of IL-2 (C and D). The CFSE-labelled cells were measured after a 3 day culture period by flow cytometry and representative data are presented in dot plots (A and C). Data are presented as mean and standard deviation (SD) of three independent experiments.
(§2) Following purification, PBMCs were equilibrated for 2 h at 37° C. […] This was followed by washing of each well with 100 μl PBS (centrifugation for 5 min, 1000 rpm, 20° C.) and re-suspending the cells in 100 μl medium for further assays.
Purified PBMCs (5*10^6 cells/ml) were incubated with […] of the fluorescent dye CFSE (5-carbofluoreszenein-ciacetat-succinylester) for 10 min at 37° C. The reaction was stopped using medium, cells were washed one time with medium by centrifugation (10 min, 300×g, 20° C.) and diluted with medium to 4*10^6 cells/ml.

[4] = tested on: IL-2 surface receptor CD25 on PBMC; experiment: IL-2 surface receptor CD25 expression, FACS; format: cell-based, human; conditions: cyclotides 4 μM, CsA 5 μg/mL, PHA-L; stimulated untreated PBMCs = 100%
Experimental: PBMCs were isolated from blood samples of healthy adults that were provided by the transfusion center of the university hospital in Freiburg (Germany). […] The lymphocyte-enriched layer was transferred into a new vessel and washed three times with PBS and centrifuged again (10 min, twice with 300×g and last time with 800 rpm, 20° C.). For the following experiments, the cells were either stained with CFSE or diluted with medium to 4*10^6 cells/ml. Cells were counted in alight microscope using trypan blue staining and a hemocytometer.
as §2
Activated cells were transferred into a 96-well plate, centrifuged (5 min, 1000 rpm, 20° C.), washed one time with 100 μl FACS-buffer and stained with CD25 PE for 15 min at 4° C. Then cells were washed twice with FCS-buffer and resuspended in 100 μl FACS-buffer, transferred into FACS vials with a total volume of 250 μl and the expression of IL2 surface receptor CD25 was measured by FACS analysis using a FACSCalibur instrument (BD Biosciences).
Amongst other pathways, T-cell proliferation is determined by binding of the cytokine IL-2 to its cell surface receptor. Therefore the influence of cyclotides on the expression of the IL-2 receptor was tested. […] As control substance CsA was used. […] Treatment with V10A yields 114%±12.5, V10K yields 112%±16.3 and T8K yields 114%±17.3 CD25 surface expression after 24 h as compared to the control (FIG. 11B).

[5] = tested on: IFN-gamma production of activated PBMCs; experiment: IFN-gamma secretion of PBMC, ELISA-based FACS; format: cell-based, human; conditions: 36 h past stimulation
Experimental: FIG. 14. IFN-γ secretion by cyclotide-treated PBMC. […] Untreated cells were used as control. Following 24 h or 36 h of cultivation, the cells were restimulated with PMA/Ionomycin for further 6 hour. The amount of IFN-γ was measured in the supernatant of cultured cells using an ELISA-based flow cytometric method. The data are presented as mean and standard deviation (SD) of three independent experiments.
Activated cells were resuspended in 50 μl of medium, transferred into a 96-well plate and treated with 10 μg/ml PHA-L. After incubation for 24 h cells were re-stimulated with PMA (50 ng/ml) und ionomycin (500 ng/ml) for 6 h. Next, the cells were transferred into Eppendorf tubes, centrifuged (5 min, 3000 RPM, 20° C.) und 50 μl of the supernatant was again transferred into new tubes and stored at −20° C. Production of cytokines was measured and quantified using the FlowCytomix™ kit according to manufacturer's instructions.
Therefore it is of interest to determine whether cyclotides only have anti-proliferative effects or also affect the effector function of T-lymphocytes, which would directly relate to changes in the IFN-gamma and TNF-alpha production. Therefore, the production of both cytokines of cyclotide-treated, activated PBMCs at an early time point after PBMC activation was tested.

[6] = tested on: activated human primary PBMC; experiment: Flow cytometric forward-side-scatter analysis of viability and proliferation; format: cell-based; conditions: extract 50-100 μg/mL; CPT 30 μg/mL
Experimental: After completion of the chemical analysis, different concentrations of the crude O. affinis cyclotide extract were tested for its anti-proliferative capacity on activated human primary PBMC (FIG. 2).

[7] = tested on: activated human primary PBMC; conditions: kalata B1 1.8-14 μM; CPT 30 μg/mL; melittin up to 1.6 μM
Experimental: as §1
The levels of apoptosis were determined using the annexin V-FITC apoptosis detection kit (eBioscience, Frankfurt, Germany) according to the manufacturer's instructions. After annexin V staining, propidium iodide solution (PI; eBioscience) was added and the cells were incubated in the dark, followed by a flow cytometric analysis to determine the amount of apoptosis and necrosis. CPT (30 μg/mL) and Triton-X 100 (0.5%) was used as positive controls for apoptosis and necrosis, respectively.
Cellular apoptotic and necrotic hallmarks were measured by using inter-nucleosomal DNA fragmentation (subG1^+ cells) assay and phosphatidylserine surface analysis through a single and combinatory annexin V and propidium iodide staining. This double staining process allowed the discrimination between viable (annexin^−/PI^−), apoptotic (annexin^+/PI^− and annexin^+/PI^+) or necrotic (annexin^−/PI^+) cells.

[8] = Relative hemolytic activity (other assays, Table 2); format: cell-based; conditions: some values given for the Ala mutant

Compound | Relative activity in other assays (fold difference to kB1): insecticidal [1] | cells containing the degranulation marker LAMP-1 as compared to the control [2] | Relative activity in other assays (fold difference to kB1): nematocidal (nematodes) | IC50 (μM) ± STDEV, inhibition of PBMC proliferation [3] | proliferation with exogenous IL-2 (PHA-L-stimulated PBMC) | proliferation as compared to the control cells, without exogenous IL-2 (PHA-L-stimulated PBMC) | CD25 expression after 48 h [4] | CD25 surface expression after 24 hours [4] | IFN-gamma production as compared to the control, 36 h [5] | dead cells / harm to cells (forward-side-scatter) [6] | induction of apoptosis [7] | Relative activity in other assays (fold difference to kB1): hemolytic [8]
kalata B1 mutant GLPVCGEKCVGGTCNTPGCTCSWPVCTRN (SEQ ID No. 8) [Kalata B1 T8K, Kalata T8K] | 0.2 fold difference to kB1 | no influence on the degranulation activity | <0.2 fold difference to kB1 | not active (n.a.)^b | did not change the effect on proliferation | no effect on the proliferation | no significant change in receptorexpression | 114%±17.3 | did not induce significant changes in the level of IFN-gamma | – | – | –
CC[C@@]1(O)C(=O)OCc2c1cc1n(c2=O)Cc2cc3ccccc3nc2-1 [camptothecin, reference compound] | – | – | – | – | – | – | – | – | – | induced a high proportion of dead cells | significantly increased the fractions of these cells | –
kalata B1 mutant GLPVCGETCAGGTCNTPGCTCSWPVCTRN (SEQ ID No. 9) [Kalata V10A] | 1.1 fold difference to kB1 | – | – | – | did not change the effect on proliferation | no effect on the proliferation | no significant change in receptorexpression | 114%±12.5 | did not induce significant changes in the level of IFN-gamma | – | – | 0.5 fold difference to kB1
